Reference: patent US20240043404A1 (AbbVie Inc., priority 2009, published 2024)
Like-named read-outs stand apart in the source and are kept apart here.

System: RS4;11 cells
Experiment: RS4;11 cell viability assay (CellTiter Glo);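 also: acute lymphoblastic leukemia line RS4,11, EC50 derived from percentage of viable cells after treatment relative to untreated controls, cell killing taken as a measure of Bcl-2 inhibition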
Format: cell-based, human
Conditions: Homo sapiens, read-out: RS4
[1] = RS4-11, 48 h, 50,000 cells per well, 10% human serum, 48 hours, 11 EC50 Values

Experimental: The acute lymphoblastic leukemia (ALL) cell line RS4;11 was used as the primary human cell line to assess the cellular activity of Bcl-2 selective agents in vitro and their efficacy in vivo.
Cell cytotoxicity EC50 values were assessed using CellTiter Glo (Promega) according to the manufacturer's recommendations. The EC50 values were determined as a percentage of viable cells following treatment compared to the untreated control cells.

Structure (SMILES): CC1(C)CCC(CN2CCN(c3ccc(C(=O)NS(=O)(=O)c4ccc(NC5CCS(=O)(=O)CC5)c([N+](=O)[O-])c4)c(Oc4cnc5[nH]ccc5c4)c3)CC2)=C(c2ccc(Cl)cc2)C1 [Example 81, 4-(4-{[2-(4-chlorophenyl)-4,4-dimethylcyclohex-1-en-1-yl]methyl}piperazin-1-yl)-N-({4-[(1,1-dioxidotetrahydro-2H-thiopyran-4-yl)amino]-3-nitrophenyl}sulfonyl)-2-(1H-pyrrolo[2,3-b]pyridin-5-yloxy)benzamide]
- EC50 [1]: 48.1 nM

Structure (SMILES): CC1(C)CCC(CN2CCN(c3ccc(C(=O)NS(=O)(=O)c4ccc(NC5CCC(NC6CC6(F)F)CC5)c([N+](=O)[O-])c4)c(Oc4cnc5[nH]ccc5c4)c3)CC2)=C(c2ccc(Cl)cc2)C1 (centres unmarked) [Example 349, 4-(4-{[2-(4-chlorophenyl)-4,4-dimethylcyclohex-1-en-1-yl]methyl}piperazin-1-yl)-N-{[4-({4-[(2,2-difluorocyclopropyl)amino]cyclohexyl}amino)-3-nitrophenyl]sulfonyl}-2-(1H-pyrrolo[2,3-b]pyridin-5-yloxy)benzamide]
- EC50 [1]: 23.1 nM

Structure (SMILES): CC1(C)CCC(CN2CCN(c3ccc(C(=O)NS(=O)(=O)c4ccc(NCC5COCCN5)c([N+](=O)[O-])c4)c(Oc4cnc5[nH]ccc5c4)c3)CC2)=C(c2ccc(Cl)cc2)C1 (centres unmarked) [Example 66, 4-(4-{[2-(4-chlorophenyl)-4,4-dimethylcyclohex-1-en-1-yl]methyl}piperazin-1-yl)-N-({4-[(morpholin-3-ylmethyl)amino]-3-nitrophenyl}sulfonyl)-2-(1H-pyrrolo[2,3-b]pyridin-5-yloxy)benzamide]
- EC50 [1]: 18.9 nM

Structure (SMILES): CC1(C)CCC(CN2CCN(c3ccc(C(=O)NS(=O)(=O)c4ccc(OCCOC5CCOC5)c([N+](=O)[O-])c4)c(Oc4cnc5[nH]ccc5c4)c3)CC2)=C(c2ccc(Cl)cc2)C1 (centres unmarked) [Example 275, 4-(4-{[2-(4-chlorophenyl)-4,4-dimethylcyclohex-1-en-1-yl]methyl}piperazin-1-yl)-N-({3-nitro-4-[2-(tetrahydrofuran-3-yloxy)ethoxy]phenyl}sulfonyl)-2-(1H-pyrrolo[2,3-b]pyridin-5-yloxy)benzamide]
- EC50 [1]: 143 nM

Structure (SMILES): CC1(C)CCC(CN2CCN(c3ccc(C(=O)NS(=O)(=O)c4ccc(OC[C@H]5COCCO5)c([N+](=O)[O-])c4)c(Oc4cnc5[nH]ccc5c4)c3)CC2)=C(c2ccc(Cl)cc2)C1 [Example 30, 4-(4-{[2-(4-chlorophenyl)-4,4-dimethylcyclohex-1-en-1-yl]methyl}piperazin-1-yl)-N-({4-[(2R)-1,4-dioxan-2-ylmethoxy]-3-nitrophenyl}sulfonyl)-2-(1H-pyrrolo[2,3-b]pyridin-5-yloxy)benzamide]
- EC50 [1]: 15.3 nM

Structure (SMILES): CC1(C)CCC(CN2CCN(c3ccc(C(=O)NS(=O)(=O)c4ccc(NCCC(F)(F)F)c([N+](=O)[O-])c4)c(Oc4cnc5[nH]ccc5c4)c3)CC2)=C(c2ccc(Cl)cc2)C1 [Example 27, 4-(4-{[2-(4-chlorophenyl)-4,4-dimethylcyclohex-1-en-1-yl]methyl}piperazin-1-yl)-N-({3-nitro-4-[(3,3,3-trifluoropropyl)amino]phenyl}sulfonyl)-2-(1H-pyrrolo[2,3-b]pyridin-5-yloxy)benzamide]
- EC50 [1]: 332 nM

Structure (SMILES): CC1(C)CCC(CN2CCN(c3ccc(C(=O)NS(=O)(=O)c4ccc(NCC5CN(C6COC6)C5)c([N+](=O)[O-])c4)c(Oc4cnc5[nH]ccc5c4)c3)CC2)=C(c2ccc(Cl)cc2)C1 [Example 162, 4-(4-{[2-(4-chlorophenyl)-4,4-dimethylcyclohex-1-en-1-yl]methyl}piperazin-1-yl)-N-[(3-nitro-4-{[(1-oxetan-3-ylazetidin-3-yl)methyl]amino}phenyl)sulfonyl]-2-(1H-pyrrolo[2,3-b]pyridin-5-yloxy)benzamide]
- EC50 [1]: 13 nM

Structure (SMILES): CC1(C)CCC(CN2CCN(c3ccc(C(=O)NS(=O)(=O)c4ccc(NCC5COCCO5)c([N+](=O)[O-])c4)c(Oc4cnc5[nH]ccc5c4)c3)CC2)=C(c2ccc(Cl)cc2)C1 (centres unmarked) [Example 25, 4-(4-{[2-(4-chlorophenyl)-4,4-dimethylcyclohex-1-en-1-yl]methyl}piperazin-1-yl)-N-({4-[(1,4-dioxan-2-ylmethyl)amino]-3-nitrophenyl}sulfonyl)-2-(1H-pyrrolo[2,3-b]pyridin-5-yloxy)benzamide]
- EC50 [1]: 7 nM

Structure (SMILES): CC1(C)CCC(CN2CCN(c3ccc(C(=O)NS(=O)(=O)c4ccc(NC5CCN(C6CCOC6)CC5)c([N+](=O)[O-])c4)c(Oc4cnc5[nH]ccc5c4)c3)CC2)=C(c2ccc(Cl)cc2)C1 (centres unmarked) [Example 143, 4-(4-{[2-(4-chlorophenyl)-4,4-dimethylcyclohex-1-en-1-yl]methyl}piperazin-1-yl)-N-({3-nitro-4-[(1-tetrahydrofuran-3-ylpiperidin-4-yl)amino]phenyl}sulfonyl)-2-(1H-pyrrolo[2,3-b]pyridin-5-yloxy)benzamide]
- EC50 [1]: 19.1 nM

Structure (SMILES): CC1(C)CCC(CN2CCN(c3ccc(C(=O)NS(=O)(=O)c4cnc(OCC5(F)CCOCC5)c(C#N)c4)c(Oc4cnc5[nH]ccc5c4)c3)CC2)=C(c2ccc(Cl)cc2)C1 [Example 56, 4-(4-{[2-(4-chlorophenyl)-4,4-dimethylcyclohex-1-en-1-yl]methyl}piperazin-1-yl)-N-({5-cyano-6-[(4-fluorotetrahydro-2H-pyran-4-yl)methoxy]pyridin-3-yl}sulfonyl)-2-(1H-pyrrolo[2,3-b]pyridin-5-yloxy)benzamide]
- EC50 [1]: 86.5 nM

Structure (SMILES): CC1(C)CCC(CN2CCN(c3ccc(C(=O)NS(=O)(=O)c4ccc(NCC5CCC(C)(C#N)CC5)c([N+](=O)[O-])c4)c(Oc4cnc5[nH]ccc5c4)c3)CC2)=C(c2ccc(Cl)cc2)C1 (centres unmarked) [Example 366, 4-(4-{[2-(4-chlorophenyl)-4,4-dimethylcyclohex-1-en-1-yl]methyl}piperazin-1-yl)-N-[(4-{[(4-cyano-4-methylcyclohexyl)methyl]amino}-3-nitrophenyl)sulfonyl]-2-(1H-pyrrolo[2,3-b]pyridin-5-yloxy)benzamide]
- EC50 [1]: 16.5 nM

Structure (SMILES): CC1(C)CCC(CN2CCN(c3ccc(C(=O)NS(=O)(=O)c4cnc(OC[C@H]5C[C@H]6C[C@@H]5C[C@@]6(C)O)c(Cl)c4)c(Oc4cnc5[nH]ccc5c4)c3)CC2)=C(c2ccc(Cl)cc2)C1 [Example 343, N-[(5-chloro-6-{[(1R,2S,4R,5R)-5-hydroxy-5-methylbicyclo[2.2.1]hept-2-yl]methoxy}pyridin-3-yl)sulfonyl]-4-(4-{[2-(4-chlorophenyl)-4,4-dimethylcyclohex-1-en-1-yl]methyl}piperazin-1-yl)-2-(1H-pyrrolo[2,3-b]pyridin-5-yloxy)benzamide]
- EC50 [1]: 127 nM

Structure (SMILES): CO[C@H]1CC[C@H](COc2ccc(S(=O)(=O)NC(=O)c3ccc(N4CCN(CC5=C(c6ccc(Cl)cc6)CC(C)(C)CC5)CC4)cc3Oc3cnc4[nH]ccc4c3)cc2[N+](=O)[O-])CC1 [Example 125, Trans-4-(4-{[2-(4-chlorophenyl)-4,4-dimethylcyclohex-1-en-1-yl]methyl}piperazin-1-yl)-N-({4-[(4-methoxycyclohexyl)methoxy]-3-nitrophenyl}sulfonyl)-2-(1H-pyrrolo[2,3-b]pyridin-5-yloxy)benzamide]
- EC50 [1]: 8.38 nM

Structure (SMILES): O=C(NS(=O)(=O)c1ccc(NCCCN2CCOCC2)c([N+](=O)[O-])c1)c1ccc(N2CCN(Cc3ccccc3-c3ccc(Cl)cc3)CC2)cc1Oc1cnc2[nH]ccc2c1 [Example 2, 4-{4-[(4′-chloro-1,1′-biphenyl-2-yl)methyl]piperazin-1-yl}-N-({4-[(3-morpholin-4-ylpropyl)amino]-3-nitrophenyl}sulfonyl)-2-(1H-pyrrolo[2,3-b]pyridin-5-yloxy)benzamide]
- EC50 [1]: 783 nM
- EC50 (RS4-11, Table 5, direct comparison Z=N with corresponding analogs Z=C, 11 EC50): 783 nM

Structure (SMILES): CC1(C)CCC(CN2CCN(c3ccc(C(=O)NS(=O)(=O)c4ccc(NCCCN(C5CCC5)C5CC5)c([N+](=O)[O-])c4)c(Oc4cnc5[nH]ccc5c4)c3)CC2)=C(c2ccc(Cl)cc2)C1 [Example 320, 4-(4-{[2-(4-chlorophenyl)-4,4-dimethylcyclohex-1-en-1-yl]methyl}piperazin-1-yl)-N-{[4-({3-[cyclobutyl(cyclopropyl)amino]propyl}amino)-3-nitrophenyl]sulfonyl}-2-(1H-pyrrolo[2,3-b]pyridin-5-yloxy)benzamide]
- EC50 [1]: 51 nM

Structure (SMILES): CC1(C)CCC(CN2CCN(c3ccc(C(=O)NS(=O)(=O)c4cnc(OCC5CCOCC5)c(S(C)(=O)=O)c4)c(Oc4cnc5[nH]ccc5c4)c3)CC2)=C(c2ccc(Cl)cc2)C1 [Example 219, 4-(4-{[2-(4-chlorophenyl)-4,4-dimethylcyclohex-1-en-1-yl]methyl}piperazin-1-yl)-N-{[5-(methylsulfonyl)-6-(tetrahydro-2H-pyran-4-ylmethoxy)pyridin-3-yl]sulfonyl}-2-(1H-pyrrolo[2,3-b]pyridin-5-yloxy)benzamide]
- EC50 [1]: > 1000 nM

Structure (SMILES): CC1(C)CCC(CN2CCN(c3ccc(C(=O)NS(=O)(=O)c4cnc(OCC5COCCO5)c(C#N)c4)c(Oc4cnc5[nH]ccc5c4)c3)CC2)=C(c2ccc(Cl)cc2)C1 (centres unmarked) [Example 49, 4-(4-{[2-(4-chlorophenyl)-4,4-dimethylcyclohex-1-en-1-yl]methyl}piperazin-1-yl)-N-{[5-cyano-6-(1,4-dioxan-2-ylmethoxy)pyridin-3-yl]sulfonyl}-2-(1H-pyrrolo[2,3-b]pyridin-5-yloxy)benzamide]
- EC50 [1]: 352 nM

Structure (SMILES): CC1(C)CC(c2ccc(Cl)cc2)=C(CN2CCN(c3ccc(C(=O)NS(=O)(=O)c4cnc(OCC5CCOCC5)c(Cl)c4)c(Oc4cnc5[nH]ccc5c4)c3)CC2)CO1 [Example 41, 4-(4-{[4-(4-chlorophenyl)-6,6-dimethyl-5,6-dihydro-2H-pyran-3-yl]methyl}piperazin-1-yl)-N-{[5-chloro-6-(tetrahydro-2H-pyran-4-ylmethoxy)pyridin-3-yl]sulfonyl}-2-(1H-pyrrolo[2,3-b]pyridin-5-yloxy)benzamide]
- EC50 [1]: 58 nM

Structure (SMILES): CN(C)CC(=O)N1CC[C@@H](Nc2ccc(S(=O)(=O)NC(=O)c3ccc(N4CCN(CC5=C(c6ccc(Cl)cc6)CC(C)(C)CC5)CC4)cc3Oc3cnc4[nH]ccc4c3)cc2[N+](=O)[O-])C1 [Example 255, 4-(4-{[2-(4-chlorophenyl)-4,4-dimethylcyclohex-1-en-1-yl]methyl}piperazin-1-yl)-N-[(4-{[(3R)-1-(N,N-dimethylglycyl)pyrrolidin-3-yl]amino}-3-nitrophenyl)sulfonyl]-2-(1H-pyrrolo[2,3-b]pyridin-5-yloxy)benzamide]
- EC50 [1]: 9 nM
